# Experimental data published in patent publication US7572439B2, “Enzyme disruption of bacterial biofilms” (priority 2002, dated 2009).
# Marks after values point to notes of the source that are not given here.
# Assays:
# S. aureus strain SA5 = test: Killing of bacteria in lysostaphin-coated polystyrene wells; format: cell-based; details: for CFU (n = 2): Table 13, Polystyrene
# Procedure: Six wells were incubated with 300 μl of either 10 mg/ml, 1 mg/ml or 100 μg/ml of lysostaphin diluted in PBS. All the samples were done in duplicates. The plate was allowed to incubate overnight at 4° C. The following morning the wells were washed with 1 ml of PBS ten times, using vacuum suction to clean out the wells. S. aureus strain SA5 was diluted in PBS to a percent transmittance of 40. A 1:10,000 dilution of this solution was made, and 300 μl was added to each well. The plates were put in a shaking incubator at 75 rpm for two hours at 37° C. After two hours, 40 μl from each well was taken out and plated onto a blood agar plate and put in the incubator overnight at 37° C. The colonies on the plates were counted the following morning.
# Coating of polystyrene wells. Wells were coated with 300 μl of 10 mg/ml, 1 mg/ml or 0.1 mg/ml of lysostaphin diluted in PBS. The plate was incubated overnight at 4° C. Wells were washed with 1 ml of PBS ten times, and washes were removed by vacuum suction. 300 μl of a 5×10^4 CFU/ml solution of S. aureus was added to each well. The plate was shaken at 75 rpm for two hours at 37° C. 40 μl from each well was then removed and streaked onto a blood agar plate and incubated overnight at 37° C.
# S. aureus [1] = test: Killing of bacteria in lysostaphin-coated Angiocath catheters; format: cell-based
# Procedure: Two Angiocath catheters (Becton Dickinson) were incubated with 200 PI of a 100 μg/mL solution of lysostaphin, while two others were incubated in PBS. The catheters were allowed to incubate overnight at 4° C. The following morning the catheters were washed with 50 ml PBS using a pump with a flow rate of 1.5 ml/minute. Once the catheters were washed, S. aureus SA5 was diluted in PBS to a percent transmittance of 40. A 1:10,000 dilution of this solution was made, and 100 μl was added to each catheter. The catheters were allowed to incubate for two hours at 37° C. Following incubation, the catheter effluent was plated onto blood agar plates and put in the incubator overnight at 37° C. The colonies on the plates were counted the following morning.
# (§1) Coating of Catheters. The needles from the AngioCath catheters were removed and disposed. Using a 1 ml syringe, the catheters were coated with 200 μl of a 0.1 mg/ml solution of lysostaphin. The catheters were incubated for 1 hour, unless otherwise specified, at room temperature. The catheters were then washed with 50 ml of phosphate buffered saline using a peristaltic pump with a flow rate of 1.5 ml/minute. The catheters were then inoculated with 120 μl of a ˜5×10^4 CFU/ml solution of bacteria (diluted in TSB) and incubated for 2 hours at 37° C. The catheter effluent was then streaked onto a blood agar plate and incubated overnight at 37° C.
# S. epidermidis = test: as above; format: cell-based; details: for CFU (n = 2): catheter coating 0.1 mg/ml; for log reduction from the control sample: coated catheters
# Procedure: as §1
# S. aureus [2] = test: Pre-treatment of catheterized mice with lysostaphin before S. aureus challenge; format: in vivo; details: for CFUs catheter / CFUs heart / CFUs liver: rinsed; for Animals infected: rinsed after 22 hours, 10^4 S. aureus, 4 days
# Procedure: Jugular vein catheterized mice were pretreated with one or two doses of lysostaphin via catheter prior to being challenged with S. aureus as in Example 4. The mice received either one dose of lysostaphin (40 mg/kg) 24 hours pre-challenge or two doses of lysostaphin (40 mg/kg) 24 hours and 2 hours pre-challenge. Lysostaphin solutions were left in the catheters during challenge. Control mice received standard Phosphate Buffered Saline (PBS). The mice were sacrificed four days post-challenge.
# In the above example, the lysostaphin solution was left in the catheters at the time of bacterial challenge, so it could be argued that this lysostaphin in solution was protecting the catheters from S. aureus infection. In order to perform a more rigorous experiment, Catheterized mice were instilled with a single dose of 40 mg/kg lysostaphin in 200 ul PBS through the catheter. One group also received a subsequent 50 ul of lock solution containing the same concentration of lysostaphin as the pre-instillation dose. Twenty two hours later, the catheters of all of these mice were rinsed thoroughly with PBS. Two hours post-rinsing, the animals were challenged with 10^4 S. aureus. The animals were sacrificed 4 days post S. aureus challenge and the catheters and organs processed for bacteria.
# SA5 = test: Long-term leaching of lysostaphin from coated catheters; format: cell-based, S. aureus
# Procedure: Long-term Leaching of Lysostaphin. Ten lysostaphin-coated catheters (10 mg/ml coating concentration) were incubated with PBS for 2 hours at 37° C. The catheters were then washed and two of the ten lysostaphin coated catheters were incubated with 200 μl of a 5×10^4 CFU/ml solution of SA5 for 2 hours at 37° C. The effluent was streaked on to blood agar plates and incubated at 37° C. overnight. The rest of the catheters were incubated with fresh PBS and left at 37° C. overnight. The following day, all eight catheters were washed out and two of the catheters were incubated with bacteria as above. The other six catheters were again incubated with fresh PBS and left at 37° C. overnight. This procedure was repeated everyday for four days.
# [3] = 40 mg/kg i.c., no lock, results from the one infected animal
substance,measurement,setting,value
lysostaphin,CFU (n = 2),S. aureus strain SA5; coating concentration 0.1 mg/ml,3 CFU
same,CFU (n = 2),S. aureus strain SA5; coating concentration 1 mg/ml,1 CFU
same,CFU (n = 2),S. aureus strain SA5; coating concentration 10 mg/ml,1 CFU
same,log reduction in bacterial counts,S. aureus strain SA5; bacteria added directly to the 0.1 mg/mL coated wells,2.4 log
same,reduction in bacterial counts,S. aureus strain SA5; lysostaphin coated polystyrene wells vs control wells,99.5%
same,"CFU's remaining in lysostaphin coated wells, on average","S. aureus strain SA5; polystyrene wells, 610 CFU's in control wells",3 CFU
same,CFU,"S. aureus [1]; Angiocath, coating 100 μg/ml overnight 4° C., SA5 two hours 37° C.",0 CFU
same,CFU (n = 2),"S. aureus [1]; Table 13, AngioCath, coating concentration 0.1 mg/ml",0 CFU
same,CFU (n = 2),"S. aureus [1]; catheter coating 0.1 mg/ml, MRSA (MBT5040)",1 CFU
same,CFU (n = 2),"S. aureus [1]; catheter coating 0.1 mg/ml, SA5",1 CFU
same,CFU (n = 2),"S. aureus [1]; catheter coating 0.1 mg/ml, SA8",0 CFU
same,reduction of bacterial counts,S. aureus [1]; catheters coated 5 minutes with 0.1 mg/ml,98.7%
same,reduction of bacterial counts,S. aureus [1]; catheters coated 10 minutes with 0.1 mg/ml,99.4%
same,reduction of bacterial counts,S. aureus [1]; catheters coated 15 minutes with 0.1 mg/ml,completely cleared
same,clearing of bacteria from coated catheters,S. aureus [1]; catheters incubated with SA8,completely cleared
same,"CFU recovered from the catheters, on average",S. aureus [1]; coated catheters incubated with MRSA (MBT5040),1 CFU
same,clearing of bacteria from coated catheters,S. aureus [1]; vs 493 CFU's from control catheters,completely cleared of bacteria
same,CFU (n = 2),S. epidermidis; S. epi 380,4 CFU
same,CFU (n = 2),S. epidermidis; S. epi 1175,68 CFU
same,CFU (n = 2),S. epidermidis; S. epi 35984,16 CFU
same,log reduction from the control sample,S. epidermidis; S. epidermidis 1175,1.1 log
same,log reduction from the control sample,S. epidermidis; S. epidermidis ATCC 35984,1.8 log
same,log reduction from the control sample,S. epidermidis; S. epidermidis type 380,2.2 log
same,CFUs catheter,S. aureus [2]; 40 mg/kg i.c. and lock,0 CFUs
same,CFUs heart,S. aureus [2]; 40 mg/kg i.c. and lock,0 CFUs
same,CFUs liver,S. aureus [2]; 40 mg/kg i.c. and lock,0 CFUs
same,Animals infected,S. aureus [2]; 40 mg/kg i.c. and lock,0/4
same,CFUs catheter,"S. aureus [2]; 40 mg/kg i.c., no lock",0 CFUs
same,Animals infected,"S. aureus [2]; 40 mg/kg i.c., no lock",1/4
same,CFUs heart,S. aureus [2]; [3],(287)^a CFUs
same,CFUs liver,S. aureus [2]; [3],(341)^a CFUs
same,infection status of pretreated mice,"S. aureus [2]; 40 mg/kg via catheter 24 hours or 24 hours and 2 hours pre-challenge, solution left in catheters, four days post-challenge",All eight treated mice were S. aureus free
same,protection of catheters from formation of S. aureus biofilms,"S. aureus [2]; single dose of 40 mg/kg pre-instilled, excess rinsed out",will protect the catheters from formation of S. aureus biofilms
same,log reduction in bacteria recovered vs uncoated catheters,"SA5; 10 mg/ml coated catheters, two-hour incubation with PBS",2.8 log
same,log reduction in bacterial counts,SA5; PBS incubation 24 hours,1.8 log
same,log reduction in bacterial counts,SA5; PBS incubation 48 hours,1.5 log
same,log reduction in bacterial counts,SA5; PBS incubation 72 hours,0.7 log
same,log reduction in bacterial counts,SA5; PBS incubation 96 hours,0.3 log
